Measured values: US20140088197A1, “MIXED CRYSTAL AGOMELATINE (FORM VIII), PREPARATION METHOD AND USE THEREOF AND PHARMACEUTICAL COMPOSITION CONTAINING SAME” (LES LABORATORIES SERVIER, priority 2011, published 2014)
In brackets after ≈: the same amount, converted by molar mass. Like-named read-outs stand apart in the source and are kept apart here.

Assays:
Assay type in all cases: physicochemical
[1] = Storage stability at 40° C. for 20 days, purity and content by HPLC; settings: for Content: external standard method; for Purity: internal standard method
Procedure: Agomelatine crystalline forms VI and VIII (obtained through embodiment 2) are each placed in thermostatic containers at a temperature of 40° C. and stored for 20 days, with the stability of these samples being studied using the method of High Performance Liquid Chromatography.
1. Purity Measurement of the Sample
Chromatographic conditions: Octadecyl silane chemically bonded silica is used as packing; a mixed solution of 10 mmol/L phosphate buffer (adjusted to pH 7.0 with sodium hydroxide) and acetonitrile in the ratio 2:7 by volume acts as the mobile phase; column temperature 40° C.; and detection wavelength 220 nm. Purity is measured using an internal standard method.
In the mobile phase, crystalline forms VI and VIII are distributed into 1 mg/mL solutions, 10 μL of each of which are then passed into a liquid chromatograph, with their chromatograms being recorded.
The reference sample purity measurement method was used, with measurements being made using an […], the results can be seen in Table I.

[2] = Measurement of water solubility (HPLC, external standard); settings: for solubility: water
Source text: 3. Measurement of Water Solubility
The HPLC method was used to determine water solubility, with measurements being made using an external standard method.

[3] = Determination of crystalline stability (pharmacopoeia stability assessment method); parameters: key to Crystalline stability, long term testing (6 months) / Crystalline stability, long term testing (9 months) / Crystalline stability, long term testing (12 months) / Crystalline stability, influencing factor: high temperature / Crystalline stability, influencing factor: illumination / Crystalline stability, influencing factor: high humidity / Crystalline stability, accelerated testing: √—stable; x—unstable; settings: for Crystalline stability, influencing factor: high temperature: 60° C.; for Crystalline stability, influencing factor: high temperature / Crystalline stability, influencing factor: high humidity / Crystalline stability, influencing factor: illumination: exposed for 10 days; for Crystalline stability, influencing factor: high humidity: 92.5% RH; for Crystalline stability, influencing factor: high humidity / Crystalline stability, long term testing (6 months) / Crystalline stability, long term testing (9 months) / Crystalline stability, long term testing (12 months): 25° C.; for Crystalline stability, accelerated testing: hermetically sealed for 6 months, 30° C., 65% RH; for Crystalline stability, long term testing (6 months) / Crystalline stability, long term testing (9 months) / Crystalline stability, long term testing (12 months): hermetically sealed, 60% RH
Source text: 4. Determination of Crystalline Stability

[4] = after storage in thermostatically controlled containers at 40° C. for 20 days
[5] = compared with crystalline form VI

COc1ccc2cccc(CCNC(C)=O)c2c1 [Form VIII, N-[2-(7-methoxy-1-naphthyl)ethyl]acetamide]
Content [1, 4]: 100.1%
Purity [1, 4]: 99.7%
Content ([1]; before storage): 100.3%
Purity ([1]; before storage): 99.8%
Solubility compared with crystalline form VI [2, 5]: comparable solubility
solubility [2]: 335 µg/mL (≈ 1380 µM)
Crystalline stability, influencing factor: high temperature [3]: √*
Crystalline stability, influencing factor: high humidity [3]: √
Stability under high temperature compared with crystalline form VI [3, 5]: greater stability under high temperature
Crystalline stability, influencing factor: illumination [3]: √
Crystalline stability, accelerated testing [3]: √
Crystalline stability, long term testing (6 months) [3]: √
Crystalline stability, long term testing (9 months) [3]: √
Crystalline stability, long term testing (12 months) [3]: √

COc1ccc2cccc(CCNC(C)=O)c2c1 [Crystalline form VI, N-[2-(7-methoxy-1-naphthyl)ethyl]acetamide, reference compound]
Content [1, 4]: 99.8%
Purity [1, 4]: 99.6%
Content ([1]; before storage): 100.1%
Purity ([1]; before storage): 99.7%
solubility ([2]; read-out: Solubility): 336 µg/mL (≈ 1380 µM)
Crystalline stability, influencing factor: high temperature [3]: x*
Crystalline stability, influencing factor: high humidity [3]: √
Crystalline stability, influencing factor: illumination [3]: √
Crystalline stability, accelerated testing [3]: √
Crystalline stability, long term testing (6 months) [3]: √
Crystalline stability, long term testing (9 months) [3]: √
Crystalline stability, long term testing (12 months) [3]: x
Crystal transition under extreme conditions ([3]; high temperature of 60° C. for 10 days): small amounts of crystal transition can occur
